Assay results taken from ChEMBL document CHEMBL1201862, “PubChem BioAssay data set” (2004).
Structures can show the parent of a compound that is named as a salt. The source made the active and inactive calls.

Tests used:
[1] = molecular target: T1, Cytochrome P450 3A4 (Homo sapiens, UniProt P08684); conditions: Potency
[2] = molecular target: Cytochrome P450 2C19 (Homo sapiens, UniProt P33261); assay: Cytochrome panel assay with activity outcomes. Panel member name: p450-cyp2c19 Compounds with AC50 equal or less than 10 uM are considered active; type: functional
[3] = molecular target: Cytochrome P450 2C9 (Homo sapiens, UniProt P11712)
[4] = molecular target: Genome polyprotein (dengue virus type 2, UniProt P29990); assay: Dengue-2 NS5 methyltransferase inhibitors, primary screen, biochemical, confirmation dose response (AID 588689); type: functional
[5] = molecular target: Cytochrome P450 2D6 (Homo sapiens, UniProt P10635);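 note: CYP2D6 member of a cytochrome P450 panel assay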
[6] = molecular target: T1, Cytochrome P450 3A4
[7] = microbe, parasite or virus in culture; type: functional; conditions: Mycobacterium tuberculosis
[8] = Luminescence Cell-Based Dose Confirmation HTS to Identify Activators of 5'UTR Stem-Loop Driven Alpha-Synuclein mRNA Translation in H4 Neuroglioblastoma Cells. [Related pubchem assays: 1829 (Project Summary), 1814 (Primary HTS)]; type: functional
[9] = Luminescence Cell-Based Dose Response HTS to Identify Activators of Luciferase Translation or Activity in H4 […] Cells. [Related pubchem assays: 1829 (Project Summary), 1814 (Primary HTS)]; type: functional
[10] = test system: H4; assay: Luminescence Cell-Based Dose Response HTS to Identify Activators of 5'UTR Stem-Loop Driven Prion Protein mRNA Translation in H4 Neuroglioblastoma Cells. [Related pubchem assays: 1829 (Project Summary), 1814 (Primary HTS)]; type: functional; conditions: Homo sapiens
[11] = test system: BJ; assay: cytotoxicity toward BJ-TERT fibroblasts, dose response, cell-based, RAS-independent, luminescence (AID 1933); type: functional; conditions: Homo sapiens
[12] = test system: BJ; assay: cells; type: functional, cell-based; conditions: Homo sapiens
[13] = molecular target: Luciferin 4-monooxygenase (Photinus pyralis, UniProt P08659); assay: firefly luciferase enzyme inhibitors, dose response, biochemical, luminescence (AID 1891)
[14] = Luminescence Cell-Based Dose Confirmation HTS to Identify Inhibitors of Platelet Dense Granule Release. [Related pubchem assays: 1663 (Primary HTS), 1678 (Summary of Project)]; type: functional
[15] = test system: BJ; assay: cytotoxicity toward BJ-TERT-LT-ST fibroblasts, dose response, cell-based, RAS-independent, luminescence (AID 1935); type: functional; conditions: Homo sapiens;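 note: BJ fibroblasts immortalized with TERT plus LT and ST oncogenes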
[16] = cytotoxicity toward DRD oncogenic fibroblasts, dose response, cell-based, non-viral oncogenic, luminescence (AID 1934); type: functional; conditions: Homo sapiens
[17] = molecular target: T2, DNA repair and recombination protein RAD54-like (Homo sapiens, UniProt Q92698); assay: inhibitors of human RAD54 branch migration, confirmation, biochemical, fluorescence, cherry-picked samples, dose series (AID 651657); type: functional
T2 sequence (Q92698 whole entry): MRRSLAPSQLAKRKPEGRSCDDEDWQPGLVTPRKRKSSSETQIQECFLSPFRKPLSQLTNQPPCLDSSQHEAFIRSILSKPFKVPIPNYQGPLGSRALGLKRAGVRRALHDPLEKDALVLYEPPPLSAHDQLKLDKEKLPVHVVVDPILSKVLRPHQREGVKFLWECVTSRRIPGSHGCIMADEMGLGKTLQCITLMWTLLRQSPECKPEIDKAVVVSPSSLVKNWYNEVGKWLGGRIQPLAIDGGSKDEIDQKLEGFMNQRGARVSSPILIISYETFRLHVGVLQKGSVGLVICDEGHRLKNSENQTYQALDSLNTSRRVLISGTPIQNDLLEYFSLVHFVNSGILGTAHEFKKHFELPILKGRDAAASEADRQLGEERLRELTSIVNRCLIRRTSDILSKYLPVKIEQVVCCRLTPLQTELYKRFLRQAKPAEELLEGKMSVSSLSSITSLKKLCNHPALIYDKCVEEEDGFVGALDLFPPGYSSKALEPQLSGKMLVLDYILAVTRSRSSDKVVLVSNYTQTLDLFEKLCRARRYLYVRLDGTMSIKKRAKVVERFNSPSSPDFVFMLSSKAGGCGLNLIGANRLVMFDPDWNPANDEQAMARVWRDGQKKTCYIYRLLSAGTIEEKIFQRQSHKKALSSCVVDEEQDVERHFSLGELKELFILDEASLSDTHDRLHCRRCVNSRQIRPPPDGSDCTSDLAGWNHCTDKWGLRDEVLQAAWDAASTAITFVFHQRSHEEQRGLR

[18] = molecular target: FAD-linked sulfhydryl oxidase ALR (Homo sapiens, UniProt P55789); assay: inhibitors of human ALR sulfhydryl oxidase, dose response, biochemical, H2O2 detection, luminescence, cherry-pick (AID 493248)
[19] = test system: Vero; assay: cells; type: functional; conditions: Chlorocebus sabaeus
[20] = cells; type: functional
[21] = molecular target: Glyceraldehyde-3-phosphate dehydrogenase (Homo sapiens, UniProt P04406)
[22] = molecular target: T3, Ubiquitin-conjugating enzyme E2 N (Homo sapiens, UniProt P61088); type: functional;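 note: Dose-response confirmation in a TR-FRET assay detecting UBC13-driven polyubiquitin chain formation, inhibition measured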
T3 sequence (P61088 whole entry): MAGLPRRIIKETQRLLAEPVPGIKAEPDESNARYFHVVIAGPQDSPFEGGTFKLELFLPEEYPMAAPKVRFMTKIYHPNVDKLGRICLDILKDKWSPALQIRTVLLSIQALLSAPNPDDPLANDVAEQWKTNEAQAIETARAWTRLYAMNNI

[23] = molecular target: T4, DNA repair protein RAD52 homolog (Homo sapiens, UniProt P43351); type: functional, biochemical
T4 sequence (P43351 whole entry): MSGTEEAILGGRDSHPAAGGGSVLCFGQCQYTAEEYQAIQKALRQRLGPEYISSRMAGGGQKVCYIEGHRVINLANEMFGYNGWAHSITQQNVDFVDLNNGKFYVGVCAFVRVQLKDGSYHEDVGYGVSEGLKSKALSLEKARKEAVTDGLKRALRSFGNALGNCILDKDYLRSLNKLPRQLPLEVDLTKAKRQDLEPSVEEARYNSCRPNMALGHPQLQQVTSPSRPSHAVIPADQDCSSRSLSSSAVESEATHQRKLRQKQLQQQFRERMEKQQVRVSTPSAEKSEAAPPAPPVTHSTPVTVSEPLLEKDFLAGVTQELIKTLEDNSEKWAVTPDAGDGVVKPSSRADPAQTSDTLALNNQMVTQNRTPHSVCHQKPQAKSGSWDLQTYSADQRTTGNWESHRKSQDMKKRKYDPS

[24] = cells; type: functional, cell-based
[25] = cells; type: functional, cell-based; remark: listed apart in the source
[26] = inhibitors of intracellular T. cruzi replication, confirmation, NIH3T3 host cells, beta-gal luminescence (AID 2044); type: functional, cell-based;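 note: intracellular parasites grown in NIH/3T3 mouse fibroblasts as host cells; luminescent beta-galactosidase reporter signal from transgenic T. cruzi replicating inside host cells; inhibitors lower the luminescence signal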
[27] = growth suppression of PTEN-null colon cells, dose response, cell-based, HCT116 PTEN knockout (AID 1047); type: functional;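 note: HCT116 colon tumor cells with PTEN knocked out; cells exposed to compound for 60 hours before readout; potency for loss of cell viability measured by luminescence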
[28] = cytotoxicity toward NIH3T3 fibroblasts, dose response, counter-screen, cell-based, ATP luminescence, mouse fibroblasts (AID 2010); type: functional;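 note: cells exposed to compound for about 90 hours before reading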
[29] = growth suppression of beta-catenin-knockout colon cells, dose response, cell-based, HCT116, human colon tumor (AID 1045); type: functional;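 note: HCT116 colon tumor cells with beta catenin knocked out; cells exposed to compound for 60 hours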

Chain of Cytochrome P450 2C19 (P33261 whole entry): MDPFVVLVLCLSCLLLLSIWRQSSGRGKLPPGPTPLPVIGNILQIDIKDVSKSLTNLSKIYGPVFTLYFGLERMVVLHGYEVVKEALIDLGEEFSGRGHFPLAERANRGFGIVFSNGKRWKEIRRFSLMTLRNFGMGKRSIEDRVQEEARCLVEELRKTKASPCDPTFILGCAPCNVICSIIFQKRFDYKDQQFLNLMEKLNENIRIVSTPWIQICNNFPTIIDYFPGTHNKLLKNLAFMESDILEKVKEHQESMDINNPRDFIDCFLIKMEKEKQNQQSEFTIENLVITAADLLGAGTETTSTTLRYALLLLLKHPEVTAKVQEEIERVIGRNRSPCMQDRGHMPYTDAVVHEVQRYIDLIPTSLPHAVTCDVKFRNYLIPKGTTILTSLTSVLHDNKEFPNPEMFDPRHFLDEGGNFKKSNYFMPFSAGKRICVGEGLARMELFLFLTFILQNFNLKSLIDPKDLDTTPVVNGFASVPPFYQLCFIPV
Chain of Genome polyprotein (P29990 2492-3391 limits assumed): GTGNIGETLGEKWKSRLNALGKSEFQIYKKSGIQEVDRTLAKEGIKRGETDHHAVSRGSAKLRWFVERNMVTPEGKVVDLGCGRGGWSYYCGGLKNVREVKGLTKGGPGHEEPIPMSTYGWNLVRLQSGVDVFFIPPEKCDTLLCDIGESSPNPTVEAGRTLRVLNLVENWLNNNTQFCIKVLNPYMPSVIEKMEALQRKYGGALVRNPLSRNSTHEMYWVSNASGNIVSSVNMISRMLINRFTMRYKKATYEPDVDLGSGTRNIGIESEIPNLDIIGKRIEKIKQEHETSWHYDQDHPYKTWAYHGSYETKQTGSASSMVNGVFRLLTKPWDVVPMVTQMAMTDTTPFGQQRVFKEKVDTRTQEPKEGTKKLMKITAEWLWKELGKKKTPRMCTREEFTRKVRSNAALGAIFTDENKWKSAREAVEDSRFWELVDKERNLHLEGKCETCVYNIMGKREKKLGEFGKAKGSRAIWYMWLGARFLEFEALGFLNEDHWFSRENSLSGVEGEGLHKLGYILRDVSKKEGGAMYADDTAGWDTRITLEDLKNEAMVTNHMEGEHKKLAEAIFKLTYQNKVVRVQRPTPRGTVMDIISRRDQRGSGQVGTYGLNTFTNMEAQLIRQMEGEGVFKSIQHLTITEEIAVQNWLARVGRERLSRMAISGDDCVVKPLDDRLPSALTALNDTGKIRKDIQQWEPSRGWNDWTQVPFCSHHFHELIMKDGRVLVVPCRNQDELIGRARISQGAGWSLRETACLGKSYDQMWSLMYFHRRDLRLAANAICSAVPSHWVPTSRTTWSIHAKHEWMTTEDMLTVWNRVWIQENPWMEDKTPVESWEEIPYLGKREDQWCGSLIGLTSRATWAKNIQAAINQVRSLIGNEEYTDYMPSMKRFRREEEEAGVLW
Chain of Cytochrome P450 2D6 (P10635 whole entry): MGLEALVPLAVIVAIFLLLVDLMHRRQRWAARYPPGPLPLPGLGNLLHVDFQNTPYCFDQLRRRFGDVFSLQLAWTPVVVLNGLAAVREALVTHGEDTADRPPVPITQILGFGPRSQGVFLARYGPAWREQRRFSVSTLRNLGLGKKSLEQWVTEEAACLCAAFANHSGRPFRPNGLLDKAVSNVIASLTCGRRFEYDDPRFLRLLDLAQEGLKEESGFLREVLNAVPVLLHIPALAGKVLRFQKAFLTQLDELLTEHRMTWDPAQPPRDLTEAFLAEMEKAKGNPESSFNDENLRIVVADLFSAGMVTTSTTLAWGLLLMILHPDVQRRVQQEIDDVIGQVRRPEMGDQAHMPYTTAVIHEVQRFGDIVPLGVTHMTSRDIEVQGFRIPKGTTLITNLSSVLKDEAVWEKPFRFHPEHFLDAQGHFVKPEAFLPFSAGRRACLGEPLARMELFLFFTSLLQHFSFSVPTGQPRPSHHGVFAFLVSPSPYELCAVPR
Chain of Glyceraldehyde-3-phosphate dehydrogenase (P04406 whole entry): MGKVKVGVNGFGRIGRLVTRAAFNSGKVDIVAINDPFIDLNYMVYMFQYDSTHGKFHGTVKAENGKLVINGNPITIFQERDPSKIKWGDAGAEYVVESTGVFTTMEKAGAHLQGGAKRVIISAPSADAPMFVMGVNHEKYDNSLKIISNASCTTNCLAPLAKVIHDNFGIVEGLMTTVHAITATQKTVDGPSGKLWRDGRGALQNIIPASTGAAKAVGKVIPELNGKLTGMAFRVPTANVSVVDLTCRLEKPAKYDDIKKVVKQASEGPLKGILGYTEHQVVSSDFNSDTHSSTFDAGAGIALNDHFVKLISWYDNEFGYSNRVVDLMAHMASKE
T1 sequence (P08684 whole entry): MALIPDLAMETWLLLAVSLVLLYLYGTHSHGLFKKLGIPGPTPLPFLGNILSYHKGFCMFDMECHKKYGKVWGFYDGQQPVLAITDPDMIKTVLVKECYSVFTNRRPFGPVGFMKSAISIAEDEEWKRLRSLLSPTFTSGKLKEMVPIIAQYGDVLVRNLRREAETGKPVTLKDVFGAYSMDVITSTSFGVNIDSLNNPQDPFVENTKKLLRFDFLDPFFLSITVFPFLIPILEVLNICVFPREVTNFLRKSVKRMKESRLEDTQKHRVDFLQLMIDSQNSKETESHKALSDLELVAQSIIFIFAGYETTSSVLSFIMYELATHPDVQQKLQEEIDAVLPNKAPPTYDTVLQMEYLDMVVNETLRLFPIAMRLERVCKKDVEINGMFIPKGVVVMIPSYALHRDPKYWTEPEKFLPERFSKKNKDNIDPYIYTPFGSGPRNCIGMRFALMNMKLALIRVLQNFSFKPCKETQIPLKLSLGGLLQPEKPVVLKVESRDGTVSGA
Chain of Cytochrome P450 2C9 (P11712 whole entry): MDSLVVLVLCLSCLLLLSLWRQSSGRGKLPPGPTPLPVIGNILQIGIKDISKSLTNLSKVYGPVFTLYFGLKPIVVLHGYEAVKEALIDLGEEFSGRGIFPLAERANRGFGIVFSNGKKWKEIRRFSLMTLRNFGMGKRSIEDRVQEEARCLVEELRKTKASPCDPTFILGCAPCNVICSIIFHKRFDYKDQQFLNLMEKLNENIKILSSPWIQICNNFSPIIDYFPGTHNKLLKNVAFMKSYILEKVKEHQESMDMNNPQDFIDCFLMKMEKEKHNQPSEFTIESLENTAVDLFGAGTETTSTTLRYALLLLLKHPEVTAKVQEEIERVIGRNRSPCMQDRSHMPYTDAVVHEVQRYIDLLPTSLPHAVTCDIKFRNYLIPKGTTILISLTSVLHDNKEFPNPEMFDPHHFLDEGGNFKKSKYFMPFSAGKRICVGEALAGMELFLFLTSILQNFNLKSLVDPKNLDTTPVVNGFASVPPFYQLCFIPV
Chain of FAD-linked sulfhydryl oxidase ALR (P55789 whole entry): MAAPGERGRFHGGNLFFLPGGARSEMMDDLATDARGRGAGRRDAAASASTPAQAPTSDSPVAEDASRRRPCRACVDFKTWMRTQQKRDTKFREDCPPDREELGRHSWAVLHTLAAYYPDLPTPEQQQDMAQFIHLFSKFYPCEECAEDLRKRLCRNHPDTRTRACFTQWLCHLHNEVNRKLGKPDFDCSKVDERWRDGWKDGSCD
Chain of Luciferin 4-monooxygenase (P08659 whole entry): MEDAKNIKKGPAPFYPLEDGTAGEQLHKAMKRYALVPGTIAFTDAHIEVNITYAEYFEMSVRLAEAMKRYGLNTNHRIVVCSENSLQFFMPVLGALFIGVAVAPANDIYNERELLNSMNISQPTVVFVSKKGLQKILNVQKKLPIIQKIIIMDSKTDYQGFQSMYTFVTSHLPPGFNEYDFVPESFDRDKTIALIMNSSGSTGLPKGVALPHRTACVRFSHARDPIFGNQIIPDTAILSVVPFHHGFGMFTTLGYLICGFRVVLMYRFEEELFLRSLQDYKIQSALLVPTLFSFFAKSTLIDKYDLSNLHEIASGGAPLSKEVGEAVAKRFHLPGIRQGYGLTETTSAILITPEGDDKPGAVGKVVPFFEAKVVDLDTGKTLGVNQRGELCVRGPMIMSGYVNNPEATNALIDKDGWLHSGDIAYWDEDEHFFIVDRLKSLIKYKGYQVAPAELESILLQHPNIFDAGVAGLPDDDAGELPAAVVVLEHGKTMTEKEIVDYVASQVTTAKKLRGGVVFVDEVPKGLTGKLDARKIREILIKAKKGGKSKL

Nc1ccc(Oc2ccc(N)cc2)cc1
AC50 [1]: 31.6 µM (inconclusive)

COc1cc(/C=N/NC(=O)c2cccc([N+](=O)[O-])c2)ccc1OCc1ccc(C)cc1
AC50 [2]: 2.51 µM (inconclusive) | AC50 [3]: 1.58 µM (inconclusive)

C#CCOc1c(/C=C\c2nc(O)c([N+](=O)[O-])c(O)n2)cc(Br)cc1OC
IC50 [4]: 74.5 µM (active)

COc1ccc(Oc2ncc3nc(C)c(=O)n(Cc4cccs4)c3n2)cc1
AC50 [2]: 39.8 µM (inconclusive) | AC50 [5]: 25.1 µM (inconclusive) | AC50 [3]: 39.8 µM (inconclusive)

O=C1OCC(c2ccccc2)=C1c1ccc(S(=O)(=O)N2CCOCC2)s1
AC50 [2]: 22.4 µM (inconclusive) | AC50 [5]: 31.6 µM (inconclusive) | AC50 [6]: 28.2 µM (inconclusive)

Cc1cccc2c1-c1sc(C(=O)Nc3ccccc3N3CCN(C)CC3)cc1CO2
CC50 [7]: 18.8 µM (active)

CSc1nc2sc3c(c2c(=O)n1C)CCC(C)C3 (stereo not given)
EC50 [8]: 5.51 µM (active) | EC50 [9]: 19.9 µM (active) | EC50 [10]: 15.3 µM (active)

O=C(CCl)NCCCCCCCCCNC(=O)CCl
EC50 [11]: 18.8 µM (active) | EC50 [12]: > 150 µM (not active) | EC50 [13]: > 112 µM (not active) | EC50 [14]: > 112 µM (not active) | CC50 [7]: 19 µM (active) | EC50 [15]: > 150 µM (not active) | EC50 [16]: > 150 µM (not active)

Cc1cc(NCCCN(C)C)n2c(nc3ccccc32)c1C#N
AC50 [17]: 18.7 µM (active)

COC(C)(C)CCCC(C)C/C=C/C(C)=C/C(=O)OC(C)C (stereo not given)
AC50 [1]: 31.6 µM (inconclusive)

COn1c(-c2ccc(Cl)cc2)nc2ncccc21
EC50 [8]: 0.106 µM (active) | EC50 [9]: 35.5 µM (active) | EC50 [10]: 51.9 µM (active)

CCCOc1ccc(CSC(CC(=O)O)C(=O)O)cc1 (stereo not given)
AC50 [2]: 0.224 µM (inconclusive)

COc1cc(C)c(C(=O)Oc2cc(C)c(C(=O)O)c(O)c2C)c(OC)c1C [DIFFRACTAIC ACID]
AC50 [18]: 0.784 µM (active) | AC50 [1]: 25.1 µM (inconclusive)

Cc1cccc(N2CCN(C(=O)CNC(=O)c3ccccc3)CC2)c1C
EC50 [8]: 19.2 µM (active) | EC50 [9]: 11.3 µM (active) | EC50 [10]: > 60 µM (not active)

CC1=NOC(=O)/C1=C/c1ccc2c(c1)OCO2
IC50 [4]: 11.6 µM (active)

O=C(NNc1ccc([N+](=O)[O-])cn1)Nc1ccc(N=Nc2ccccc2)cc1
CC50 [19]: 19.4 µM (active)

O=c1cc(-c2ccc(O)cc2)oc2cc(O)ccc12
AC50 [1]: 7.94 µM (inconclusive)

CC(C)OC(=O)c1sc2nc3c(cc2c1N)C(=O)CCC3
EC50 [8]: 41.9 µM (active) | EC50 [9]: 73.1 µM (active) | EC50 [10]: 41.6 µM (active)

CN(C)c1ccc(-c2cc(NCc3cccnc3)ncn2)cc1
AC50 [2]: 39.8 µM (inconclusive)

O=C(NCCc1c[nH]c2ccccc12)c1cc2ccccc2oc1=O
EC50 [8]: 0.481 µM (active) | EC50 [9]: 119 µM (active) | EC50 [10]: 11 µM (active) | IC50 [20]: 0.34 µM (active)

Cc1cccc(N2C(=O)C(Cl)=C(N3CCN(C/C=C/c4ccccc4)CC3)C2=O)c1
IC50 [21]: > 50 µM (inconclusive)

O=C(c1ccccc1)c1ccc(Oc2ccc(C(=O)O)c(C(=O)O)c2)cc1
IC50 [21]: > 100 µM (not active)

Cc1cc2cc(C=O)c(Cl)nc2cc1C
AC50 [2]: 0.0708 µM (inconclusive) | AC50 [5]: 7.08 µM (inconclusive) | AC50 [6]: 10 µM (inconclusive)

CCOC(=O)c1cnc2c(Cl)cccc2c1NCCCN1CCOCC1
AC50 [17]: 32.7 µM (active)

Cc1occc1C(=O)N/N=C/c1cccc2ccccc12
EC50 [8]: 0.129 µM (active) | EC50 [9]: 0.19 µM (active) | EC50 [10]: 52.9 µM (active)

COc1cccc(N2CCN(C3=C(Cl)C(=O)N(c4cccc(C(F)(F)F)c4)C3=O)CC2)c1
IC50 [21]: > 50 µM (inconclusive)

COC(c1ccccc1Br)C(C)/C=C/CCO (stereo not given)
AC50 [1]: 3.16 µM (inconclusive)

CCOC(=O)c1c(NC(=O)C(NCCN(C)C)c2ccccc2)sc2c1CCCC2 (stereo not given)
CC50 [7]: 13.2 µM (active) | IC50 [22]: > 20 µM (inactive) | AC50 [23]: 10 µM (active)

CNC(C)C#Cc1ccc2oc3cccc(OC)c3c(=O)c2c1 (stereo not given)
AC50 [17]: 24.3 µM (active)

OCCN1CCN(c2nc(-c3ccccc3O)nc3ccccc23)CC1
AC50 [17]: 7.01 µM (active)

COc1ccc(C(=O)/C=C/c2ccccc2F)c(OC(=O)c2ccc([N+](=O)[O-])cc2)c1
CC50 [19]: 20.9 µM (active)

CC1CCC(NC(=O)Cn2cc3c(n2)CCCC3)CC1 (stereo not given)
EC50 [8]: 0.278 µM (active) | EC50 [9]: 3.02 µM (active) | EC50 [10]: 4.09 µM (active)

CC(SCc1cn2cc(Cl)ccc2n1)C(=O)O (stereo not given)
AC50 [2]: 28.2 µM (inconclusive)

CCC(NCc1cc(OC)cc(OC)c1)=C1C(=O)NC(=O)NC1=O
EC50 [24]: > 350 µM (not active) | EC50 [25]: > 350 µM (not active)

Cn1nc(-c2ccc(N3CCCCC3)c(NC(=O)c3ccco3)c2)c2ccccc2c1=O
EC50 [26]: 1.23 µM (active) | CC50 [7]: 26.3 µM (active) | EC50 [27]: 7.35 µM (active) | EC50 [28]: > 60 µM (not active) | EC50 [29]: 9.07 µM (active)

CCCCC(CC)COC(=O)CCCCC(=O)OCC(CC)CCCC (stereo not given)
AC50 [1]: 20 µM (inconclusive)

CS(C)(=O)=O [DIMETHYL SULFONE]
AC50 [1]: 20 µM (inconclusive)

COc1cc(/C=C2\SC(=S)N(C(C(=O)O)c3ccccc3)C2=O)cc(OC)c1OC (stereo not given)
IC50 [4]: > 100 µM (active)

CN1CCCCC1c1ccc(-c2cccnc2)nc1 (stereo not given) [ANABASAMINE HYDROCHLORIDE]
AC50 [1]: 12.6 µM (inconclusive)
